# According to patent publication US11524938B2, “Aromatic sulfonamide derivatives” (Bayer Pharma Aktiengesellschaft, priority 2016, dated 2022):
# “And” between values parts separate entries of the source, which are not always exact repeats. Equal values may be shown once.
# Target: T1, human P2X4 (Homo sapiens, UniProt Q99571)
# T1 sequence (Q99571 1-388): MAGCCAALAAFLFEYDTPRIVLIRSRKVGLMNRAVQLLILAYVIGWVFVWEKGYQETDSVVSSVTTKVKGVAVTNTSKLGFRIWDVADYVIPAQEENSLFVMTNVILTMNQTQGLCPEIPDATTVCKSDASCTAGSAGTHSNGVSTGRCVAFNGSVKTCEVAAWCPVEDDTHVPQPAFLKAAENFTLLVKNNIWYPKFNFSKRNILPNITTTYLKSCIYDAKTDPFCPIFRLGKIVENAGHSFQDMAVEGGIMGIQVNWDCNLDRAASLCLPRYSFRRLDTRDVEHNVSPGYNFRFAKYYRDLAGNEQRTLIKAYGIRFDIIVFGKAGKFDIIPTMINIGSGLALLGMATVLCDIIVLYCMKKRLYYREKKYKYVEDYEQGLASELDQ
# Test: Human P2X4 HEK Cell FLIPR Assay
# Format: cell-based
# Details: agonist Bz-ATP at EC80; for Emax: HEK293, HEK293 cells, percentage of maximal inhibition, read-out: Human P2X4 HEK Cells (FLIPR Assay) avg Efficacy [%]; for IC50: HEK293 cells, individual values listed where some fall outside detection range
# Description: HEK293 cells stably expressing human P2X4 were plated in poly-D-lysine-coated 384-well plates at a seeding density of 30000 cells/well and incubated overnight. P2X4 function was assessed by measuring intracellular calcium changes using the calcium-chelating dye Fluo8-AM (Molecular Devices) on a fluorescent imaging plate reader (FLEX/FLIPR station; Molecular Devices). On the day of the assay, the medium was removed and the cells were incubated for 30 min at 37° C. and 5% CO2 in 30 μL of dye buffer (Hank's balanced salt solution, 10 mM HEPES, 1.8 mM CaCl2, 1 mM MgCl2, 2 mM probenecid, 5 mM D-glucose monohydrate, 5 μM Fluo8-AM, pH=7.4). Compounds diluted in probenecid buffer (Hank's balanced salt solution, 10 mM HEPES, 1.8 mM CaCl2, 1 mM MgCl2, 2 mM probenecid, 5 mM D-glucose monohydrate, pH=7.4) were added in a volume of 10 μL and allowed to incubate for 30 min at room temperature. The final assay DMSO concentration was 0.5%. The agonist, Bz-ATP (Tocris), was added in a volume of 10 μL at a concentration representing the EC80 value. The EC80 value of Bz-ATP was determined each assay day prior to compound profiling. The fluorescence was measured for an interval of 120 sec at 2 sec intervals. The excitation and emission wavelengths used to monitor fluorescence were 470-495 nm and 515-575 nm, respectively. The data was analyzed based on the increase in peak relative fluorescence units (RFU) compared to the basal fluorescence and the data was normalized to the agonist control. The compounds were tested in triplicates per plate and mean values were plotted in Excel XLFit to determine IC50 values, percentage of maximal inhibition and the Hill coefficients.
Structure (SMILES),Emax,IC50
"NS(=O)(=O)c1cc(NC(=O)Cc2ccccc2Cl)ccc1-c1cnn(C2CCC2)c1 [Example 280, 2-(2-Chlorophenyl)-N-[4-(1-cyclobutyl-1H-pyrazol-4-yl)-3-sulfamoylphenyl]acetamide]",101%,60 nM
"NS(=O)(=O)c1cc(NC(=O)Cc2cccnc2Cl)ccc1-n1cnc(C(F)(F)F)n1 [Example 239, 2-(2-Chloropyridin-3-yl)-N-{3-sulfamoyl-4-[3-(trifluoromethyl)-1H-1,2,4-triazol-1-yl]phenyl}acetamide]",81%,2590 nM
"NS(=O)(=O)c1cc(NC(=O)Cc2ccccc2[N+](=O)[O-])ccc1-n1cc(C(F)(F)F)cn1 [Example 110, 2-(2-Nitrophenyl)-N-{3-sulfamoyl-4-[4-(trifluoromethyl)-1H-pyrazol-1-yl]phenyl}-acetamide]",51%,267 nM
"NS(=O)(=O)c1cc(NC(=O)Cc2cccnc2Cl)ccc1-n1cc(Cl)cn1 [Example 89, N-[4-(4-Chloro-1H-pyrazol-1-yl)-3-sulfamoylphenyl]-2-(2-chloropyridin-3-yl)-acetamide]",83%,2320 nM
"NS(=O)(=O)c1cc(NC(=O)Cc2ccc(C(F)(F)F)cc2Cl)ccc1-c1ccc(Cl)nc1 [Example 474, N-[4-(6-Chloropyridin-3-yl)-3-sulfamoylphenyl]-2-[2-chloro-4-(trifluoromethyl)phenyl]acetamide]",93%,323 nM
"NS(=O)(=O)c1cc(NC(=O)Cc2ccccc2OC(F)F)ccc1-n1cc(F)cn1 [Example 157, 2-[2-(Difluoromethoxy)phenyl]-N-[4-(4-fluoro-1H-pyrazol-1-yl)-3-sulfamoylphenyl]-acetamide]",90%,153 nM
"Cc1ccccc1CC(=O)Nc1ccc(-c2cnn(C(F)F)c2)c(S(N)(=O)=O)c1 [Example 223, N-{4-[1-(Difluoromethyl)-1H-pyrazol-4-yl]-3-sulfamoylphenyl}-2-(2-methylphenyl)-acetamide]",87%,26 nM
"NS(=O)(=O)c1cc(NC(=O)Cc2ccccc2Br)ccc1-n1cc(F)cn1 [Example 177, 2-(2-Bromophenyl)-N-[4-(4-fluoro-1H-pyrazol-1-yl)-3-sulfamoylphenyl]acetamide]",83%,35 nM
"NS(=O)(=O)c1cc(NC(=O)Cc2ccccc2C(F)(F)F)ccc1-n1cc(F)cn1 [Example 140, N-[4-(4-Fluoro-1H-pyrazol-1-yl)-3-sulfamoylphenyl]-2-[2-(trifluoromethyl)phenyl]-acetamide]",92%,77 nM
"NS(=O)(=O)c1cc(NC(=O)Cc2ccccc2Br)ccc1-n1cc(C(F)(F)F)cn1 [Example 117, 2-(2-Bromophenyl)-N-{3-sulfamoyl-4-[4-(trifluoromethyl)-1H-pyrazol-1-yl]phenyl}-acetamide]",66%,102 nM
"Cc1nc(-c2ccc(NC(=O)Cc3ccccc3Cl)cc2S(N)(=O)=O)cn1C [Example 320, 2-(2-Chlorophenyl)-N-[4-(1,2-dimethyl-1H-imidazol-4-yl)-3-sulfamoylphenyl]acetamide]",51%,> 25000 nM
"NS(=O)(=O)c1cc(NC(=O)Cc2ccccc2Cl)ccc1-c1cnn(CC2CC2(Cl)Cl)c1 (stereo not shown) [Example 357, 2-(2-Chlorophenyl)-N-(4-{1-[(2,2-dichlorocyclopropyl)methyl]-1H-pyrazol-4-yl}-3-sulfamoylphenyl)acetamide]",87%,71 nM
"N#Cc1cnn(-c2ccc(NC(=O)Cc3ccc(O)cc3)cc2S(N)(=O)=O)c1 [Example 194, N-[4-(4-Cyano-1H-pyrazol-1-yl)-3-sulfamoylphenyl]-2-(4-hydroxyphenyl)acetamide]",84%,325 nM
"NS(=O)(=O)c1cc(NC(=O)Cc2ccccc2Cl)ccc1-c1cnn2cccnc12 [Example 365, 2-(2-Chlorophenyl)-N-[4-(pyrazolo[1,5-a]pyrimidin-3-yl)-3-sulfamoylphenyl]acetamide]",89%,113 nM
"NS(=O)(=O)c1cc(NC(=O)Cc2ccccc2C(F)(F)F)ccc1-n1cc(Cl)cn1 [Example 234, N-[4-(4-Chloro-1H-pyrazol-1-yl)-3-sulfamoylphenyl]-2-[2-(trifluoromethyl)-phenyl]acetamide]",96%,93 nM
"Cc1cn(-c2ccc(NC(=O)Cc3ccccc3Cl)cc2S(N)(=O)=O)cn1 [Example 251, 2-(2-Chlorophenyl)-N-[4-(4-methyl-1H-imidazol-1-yl)-3-sulfamoylphenyl]acetamide]",96%,21 nM
"N#Cc1cnn(-c2ccc(NC(=O)Cc3ccncc3Cl)cc2S(N)(=O)=O)c1 [Example 218, 2-(3-Chloropyridin-4-yl)-N-[4-(4-cyano-1H-pyrazol*1-yl)-3-sulfamoyl-phenyl]acetamide]",92%,957 nM
"COc1ccc(CC(=O)Nc2ccc(-c3cncc(C(F)(F)F)c3)c(S(N)(=O)=O)c2)cc1 [Example 455, 2-(4-Methoxyphenyl)-N-{3-sulfamoyl-4-[5-(trifluoromethyl)pyridin-3-yl]phenyl}acetamide]",74%,5 nM
"NS(=O)(=O)c1cc(NC(=O)Cc2ccccc2Cl)ccc1-n1cc2ccccc2n1 [Example 396, 2-(2-Chlorophenyl)-N-[4-(2H-indazol-2-yl)-3-sulfamoylphenyl]acetamide]",44%,9.58 µM and > 25 µM (4×)
"Cn1cc(-c2ccc(NC(=O)Cc3cccc(F)c3Cl)cc2S(N)(=O)=O)cn1 [Example 334, 2-(2-Chloro-3-fluorophenyl)-N-[4-(1-methyl-1H-pyrazol-4-yl)-3-sulfamoylphenyl]-acetamide]",98%,18 nM
"NS(=O)(=O)c1cc(NC(=O)Cc2ccccc2C(F)(F)F)ccc1-c1cnn(C(F)F)c1 [Example 224, N-{4-[1-(Difluoromethyl)-1H-pyrazol-4-yl]-3-sulfamoylphenyl}-2-[2-(trifluoromethyl)-phenyl]acetamide]",94%,28 nM
"NS(=O)(=O)c1cc(NC(=O)Cc2ccccc2C(F)F)ccc1-n1cc(F)cn1 [Example 51, 2-[2-(Difluoromethyl)phenyl]-N-[4-(4-fluoro-1H-pyrazol-1-yl)-3-sulfamoyl-phenyl]acetamide]",94%,134 nM
"NS(=O)(=O)c1cc(NC(=O)Cc2ccccc2Cl)cnc1-n1cc(Br)cn1 [Example 389, N-[6-(4-Bromo-1H-pyrazol-1-yl)-5-sulfamoylpyridin-3-yl]-2-(2-chlorophenyl)-acetamide]",77%,22 nM
"NC(=O)c1cnn(-c2ccc(NC(=O)Cc3ccccc3Cl)cc2S(N)(=O)=O)c1 [Example 553, 1-(4-{[(2-Chlorophenyl)acetyl]amino}-2-sulfamoylphenyl)-1H-pyrazole-4-carboxamide]",82%,5 nM
"CC(C)Oc1ncccc1-c1ccc(NC(=O)Cc2ccccc2Cl)cc1S(N)(=O)=O [Example 336, 2-(2-Chlorophenyl)-N-{4-[2-(propan-2-yloxy)pyridin-3-yl]-3-sulfamoylphenyl}acetamide]",109%,28 nM
"NS(=O)(=O)c1cc(NC(=O)Cc2ccc(C(F)(F)F)cc2)ccc1-c1ccc(Cl)nc1 [Example 462, N-[4-(6-Chloropyridin-3-yl)-3-sulfamoylphenyl]-2-[4-(trifluoromethyl)phenyl]acetamide]",89%,929 nM
